Laboratory results reported in a melting point compilation (Tetko et al.; mined from patent text by program, amines drawn as free bases though some values may be those of a salt).

SMILES | melting point
COc1ccc(C)cc1NC(=O)Nc1ccc(N2CCN(C(=O)Nc3ccc(OCCO)cc3C(F)(F)F)CC2)nc1 | 198 to 200 °C
Nc1ncnc2c1ncn2Cc1oc2ccccc2c(=O)c1-c1cccc(F)c1 | 224 to 227 °C
CCOC(=O)c1[nH]c2cc(Cl)cc(Cl)c2c1C(=O)OCC | 167 to 170 °C
CC(C)=CCCC(C)=CCOc1ccc(C(=O)NCc2ccncc2)cc1 | 108 to 110 °C
CCCOc1ccc(OC)cc1-c1ncc(C(=O)O)c(=O)[nH]1 | 185 to 187 °C
CCn1cc(-c2ccccc2)c(=O)c(-c2cccc(C)c2)c1 | 87 to 89 °C
OCC1CCn2c(cc3ccccc32)C1 (stereo unspecified) | 110 to 111 °C
CCCCCCCCCCCCCCCSCCCO | 36 to 39 °C
Cc1ncc(-c2ccc(Cl)cc2)cc1C#N | 158 to 159 °C
CCCCN1CC2CN(c3ccc([N+](=O)[O-])cc3[N+](=O)[O-])CC(C1)C2(C)C | 119 °C
CCCN1C(=O)N2CC(Cc3ccccc3)N=C2c2[nH]c(C(OC)c3ccccc3)nc21 (stereo unspecified) | 160 to 162 °C
Nc1ccccc1SCc1noc(CSc2ccccc2N)n1 | 68 °C
O=C1Cc2cc(I)ccc2N1 | 190 to 192 °C
Cc1ccc(S(=O)(=O)Nc2cc3c(c(C(=O)O)c2)NCCC3)cc1 | 251 °C
CCCOC(=O)c1cc(=O)c(Sc2ccc(OC)cc2)co1 | 91 to 93 °C
CC(C)(Cl)C(CCNC(=O)C(F)(F)F)N=O (stereo unspecified) | 91 to 93 °C
CCC(=O)c1c(C(=O)C(C)C)c2ccc(C(N)=O)cc2n1Cc1ccccc1Cl | 145 to 147 °C
COc1ccc(C2(C#N)CCC(=O)CC2)c2c1oc1ccccc12 | 199 to 202 °C
Oc1ccc2sc3ccccc3c2c1 | 152 to 155 °C
O=C1NC(=O)C(Cc2ccc(OCCON3C(=O)c4ccccc4C3=O)cc2)S1 (stereo unspecified) | 146 to 147 °C
COc1ccc(C=CC(O)C(O)C=Cc2ccc(OC)cc2)cc1 (stereo unspecified) | 145 to 146 °C
CCCCc1c2ccccc2cc2ccccc12 | 49 °C
COc1cn(-c2ccc(N3CC(F)C3)cc2F)nc(-c2ccnn2-c2ccccc2)c1=O | 162 to 163 °C
Cc1cc(=O)[nH]c2cc(OCCCN3CCN(C(c4ccccc4)c4ccccc4)CC3)ccc12 | 208 to 210 °C
Cc1ccccc1-c1cn(C)cc(-c2ccc(Cl)c(Cl)c2)c1=O | 103 to 106 °C
O=C(O)Cc1ccccc1CBr | 110 °C

SMILES | melting point
COC(=O)Nc1nc(-c2ccccc2)c(-c2nc3ccccc3c(=O)n2-c2ccccc2)s1 | > 275 °C
CN1C(=O)[C@H](NC(=O)/C=C/c2ccc(C(F)(F)F)cc2)N=C(c2ccccc2)c2ccccc21 | 133 to 137 °C
O=C(Cc1ccc(Cl)cc1)Nc1ccc(-n2nc(C(F)(F)F)cc2C(F)(F)F)cc1 | 122 to 124 °C
COC(=O)C(Cl)(C(=O)OC)[C@@H](C[N+](=O)[O-])c1ccccc1 | 175 to 177 °C
O=C(O)C(O)(CSc1ccccc1)C(F)(F)F (stereo unspecified) | 83 to 84 °C
Cc1cccc(-c2nc(C(C)C)[nH]c2-c2ccc(F)c(-c3ccc(NS(=O)(=O)C4CC4)cc3)c2)n1 | 119 to 129 °C
Cc1cccc(N2C(=O)C(=NO)c3ccccc32)c1C | 215 to 216 °C
NC(=O)NS(=O)(=O)c1cccc(Cl)c1Cl | 197 to 200 °C
CC1(C)OC(=O)C(Oc2ncnc3ccccc23)=C1c1ccc(S(C)(=O)=O)cc1 | 174 to 177 °C
CCOC(=O)CCc1cccc(OCc2ccc(OCc3nc(-c4ccccc4)oc3C)cc2)c1 | 90 to 91 °C
CCOC(=O)c1nc(S)n(-c2ccccc2)c1C(=O)OCC | 145 to 146 °C
CCCc1c(CNc2ccc(C(=O)O)cc2)ccc(C(C)=O)c1O | 202 to 204 °C
O=C1Nc2ccccc2C1c1cc(Cl)ccc1O (stereo unspecified) | 256 to 258 °C
Cc1ncccc1C(C#N)N1CCN(C(=O)Cc2ccc(OCc3ccc4ccccc4n3)cc2)CC1 (stereo unspecified) | 64 to 68 °C
COC(=O)c1nc2n(n1)-c1ccccc1N(c1cccc(C(F)(F)F)c1)C2 | 204 to 206 °C
COc1ccccc1OCCCl | 36 to 38 °C
Clc1ccc(CSc2nnc(-c3ccc4occc4c3)o2)cc1 | 162 to 163 °C
Clc1cc2c(nn1)CCCCCCCCCC2 | 126 to 128 °C
CNC(=S)NS(=O)(=O)c1cc(CCNC(=O)/C=C/c2cccs2)ccc1OCCc1ccccc1 | 74 °C
COc1cc(F)c(N2CCCC2=O)c(S(N)(=O)=O)c1 | 205 °C
c1ccc(COc2cc3ccncc3cc2OCc2ccccc2)cc1 | 97 °C
Cn1ncc(/C=C/C(=O)Nc2ccc3c(c2)oc(=O)n3C)c1-c1ccc(F)cc1 | 265 to 266 °C
CC(C)CC(NC(=O)C(CS)CC(F)(F)F)C(=O)O (stereo unspecified) | 78 to 81 °C
COc1ccc(C(C)(C)C)cc1NC(=O)Nc1ccc(-c2cnc3c(c2)NC(=O)CS3(=O)=O)c2ccccc12 | 209 to 211 °C
O[C@@H]1c2ccccc2C=C[C@H]1N1CCCC1 (relative stereo) | 140 to 141 °C
